Results reported in patent publication US20230241060A1, “GLUCOCORTICOID-SPARING AGENT” (METRIOPHARM AG, priority 2020, published 2023).
“And” between values parts separate entries of the source, which are not always exact repeats. Identical values can stand only once. Like-named read-outs stand apart in the source and are kept apart here.

Assays:
[1] = system: IL-6 production, LPS stimulated RAW264.7 cells; test: IL-6 levels (ELISA) in supernatants of LPS stimulated RAW264.7 cells; assay type: cell-based, mouse
Procedure: Raw264.7 cells (leukemia transformed monocytic-macrophage cell line derived from mouse ascitic fluid) were grown in Dulbecco's Modified Eagle's Medium enriched with glutamine and fetal calf serum and maintained at 37° C. and 5% CO2.
Two experimental parts were performed.

[2] = Body weight in pilot study of collagen induced arthritis (CIA) in mice; conditions: MP1032 1 mg/kg/day alone, intraperitoneally
[3] = Schumann et al. 2020; cited from earlier work
[4] = Case report rheumatoid arthritis; assay type: in vivo, human; conditions: person, 10 mg prednisone retard tablets once daily
From the text: A person was diagnosed with rheumatoid arthritis a few months after experiencing first symptoms.

## Nc1cccc2c(=O)[nH][nH]c(=O)c12.[Na]
[1]; Exp Part 1, MP1032 0.025 mM alone, sodium salt
  Percentage inhibition of IL-6 production: 17% and 17.03%
[1]; Exp Part 1, MP1032 0.05 mM alone, sodium salt
  Percentage inhibition of IL-6 production: 25.8% and 25.77%
[1]; Exp Part 1, MP1032 0.1 mM alone
  Percentage inhibition of IL-6 production: 44.85%
[1]; Exp Part 1, MP1032 0.25 mM alone
  Percentage inhibition of IL-6 production: 53.95%
[1]; Exp Part 1, MP1032 0.5 mM alone
  Percentage inhibition of IL-6 production: 56.70%
[1]; Exp Part 1, MP1032 1 mM alone
  Percentage inhibition of IL-6 production: 72.75%
[1]; Exp Part 2, MP1032 0.025 mM alone
  Percentage inhibition of IL-6 production: 1.57%
[1]; Exp Part 2, MP1032 0.05 mM alone
  Percentage inhibition of IL-6 production: 0%
[1]; Exp Part 2, MP1032 0.1 mM alone
  Percentage inhibition of IL-6 production: 0%
[1]; Exp Part 2, MP1032 0.25 mM alone
  Percentage inhibition of IL-6 production: 13.85%
[1]; Exp Part 2, MP1032 0.5 mM alone
  Percentage inhibition of IL-6 production: 47.52%
[1]; Exp Part 2, MP1032 1 mM alone
  Percentage inhibition of IL-6 production: 67.30%
[2]
  Body weight on day 45, median: (23.6, n = 11) g

## Nc1cccc2c(=O)[nH][nH]c(=O)c12
[3]
  tolerability: well tolerated

## C[C@]12C=CC(=O)C=C1CC[C@@H]1[C@@H]2C(=O)C[C@@]2(C)[C@H]1CC[C@]2(O)C(=O)CO [prednisone]
[4]; rheumatoid arthritis, within months
  pain and inflammation: improved
[4]
  body weight: started to gain weight

## C[C@@H]1C[C@H]2[C@@H]3CCC4=CC(=O)C=C[C@]4(C)[C@@]3(F)[C@@H](O)C[C@]2(C)[C@@]1(O)C(=O)CO [Dexamethasone, dexamethasone, reference compound]
[1]; Exp Part 1, dexamethasone 0.01 μM alone
  Percentage inhibition of IL-6 production: 34.66%
[1]; Mus musculus, RAW264.7, Exp Part 1, dexamethasone 0.01 μM alone, read-out: Percentage inhibition of IL-6 production
  inhibition at 0.01 µM: 34.7%
[1]; Mus musculus, RAW264.7, Exp Part 1, dexamethasone 0.1 μM alone, read-out: Percentage inhibition of IL-6 production
  inhibition at 0.1 µM: 63.8%
[1]; Mus musculus, RAW264.7, Exp Part 1, dexamethasone 1 μM alone, read-out: Percentage inhibition of IL-6 production
  inhibition at 1 µM: 87%
[1]; Mus musculus, RAW264.7, Exp Part 2, dexamethasone 0.0003 μM alone, read-out: Percentage inhibition of IL-6 production
  inhibition at 0.0003 µM: 1.57%
[1]; Mus musculus, RAW264.7, Exp Part 2, dexamethasone 0.0006 μM alone, read-out: Percentage inhibition of IL-6 production
  inhibition at 0.0006 µM: 4.07%
[1]; Mus musculus, RAW264.7, Exp Part 2, dexamethasone 0.0012 μM alone, read-out: Percentage inhibition of IL-6 production
  inhibition at 0.0012 µM: 0%
[1]; Mus musculus, RAW264.7, Exp Part 2, dexamethasone 0.0025 μM alone, read-out: Percentage inhibition of IL-6 production
  inhibition at 0.0025 µM: 4.16%
[1]; Mus musculus, RAW264.7, Exp Part 2, dexamethasone 0.005 μM alone, read-out: Percentage inhibition of IL-6 production
  inhibition at 0.005 µM: 30.6%
[1]; Mus musculus, RAW264.7, Exp Part 2, dexamethasone 0.01 μM alone, read-out: Percentage inhibition of IL-6 production
  inhibition at 0.01 µM: 36.3%
